According to ChEMBL document CHEMBL1157705, “Carbonic anhydrase inhibitors. Identification of selective inhibitors of the human mitochondrial isozymes VA and VB over the cytosolic isozymes I and II from a natural product-based phenolic library” (Bioorg Med Chem, 2010):

How the values were obtained:
[1] = biological target: Carbonic anhydrase 2 (Homo sapiens) (UniProt P00918)
[2] = biological target: Carbonic anhydrase 1 (Homo sapiens) (UniProt P00915)
[3] = biological target: Carbonic anhydrase 5B, mitochondrial (Homo sapiens) (UniProt Q9Y2D0)
Carbonic anhydrase 5B, mitochondrial (Homo sapiens), sequence (Q9Y2D0 whole entry): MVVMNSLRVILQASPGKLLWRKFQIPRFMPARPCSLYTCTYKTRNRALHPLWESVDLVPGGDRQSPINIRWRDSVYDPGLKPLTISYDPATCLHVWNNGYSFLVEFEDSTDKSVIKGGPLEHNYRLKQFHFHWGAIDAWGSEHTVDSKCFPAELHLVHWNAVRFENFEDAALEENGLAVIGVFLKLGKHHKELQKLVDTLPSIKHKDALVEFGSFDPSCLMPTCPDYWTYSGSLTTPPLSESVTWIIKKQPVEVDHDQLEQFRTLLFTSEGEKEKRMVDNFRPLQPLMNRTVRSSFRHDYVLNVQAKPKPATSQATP
Description: Inhibition of human recombinant carbonic anhydrase 5B by stopped flow CO2 hydration method

Carbonic anhydrase 1 (Homo sapiens), sequence (P00915 2-261 limits assumed): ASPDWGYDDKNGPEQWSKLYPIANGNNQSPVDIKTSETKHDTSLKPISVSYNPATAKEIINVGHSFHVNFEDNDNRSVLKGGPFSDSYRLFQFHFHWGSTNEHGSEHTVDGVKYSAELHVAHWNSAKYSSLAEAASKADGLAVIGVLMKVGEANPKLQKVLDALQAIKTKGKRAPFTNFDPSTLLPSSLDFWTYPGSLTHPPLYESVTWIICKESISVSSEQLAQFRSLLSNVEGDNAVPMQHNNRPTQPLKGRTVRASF

| SMILES | Ki [1] | Ki [2] | Ki [3] |
| --- | --- | --- | --- |
| COC(=O)/C=C/C(=O)O | 7.5 µM | 284 µM | 0.098 µM |
| O=C(O)Cc1ccc(O)cc1 | 10.3 µM | 309 µM | 0.107 µM |
| OCCc1ccc(O)cc1 | 8.7 µM | 430 µM | 0.105 µM |
| COCCNC(=O)Cc1ccc(O)c(Cl)c1 | 10.4 µM | 158 µM | 0.084 µM |
| O=C(O)/C=C/C(=O)O | 10.5 µM | 395 µM | 0.09 µM |
| CCCCNC(=O)Cc1ccc(O)c(Cl)c1 | 9.4 µM | 10.7 µM | 0.081 µM |

Other lines, results leading:

| Ki [1] | Ki [2] | Ki [3] | SMILES |
| --- | --- | --- | --- |
| 11.7 µM | 368 µM | 0.069 µM | COc1cc([C@@H]2[C@@H](C)[C@H](C)[C@H]2c2ccc(O)c(OC)c2)ccc1O |
| 9.8 µM | 9.6 µM | 0.091 µM | O=C(Cc1ccc(O)c(Cl)c1)NCCc1ccccc1 |
| 12.1 µM | 354 µM | 0.079 µM | COc1cc([C@@H]2[C@@H](C)[C@@H](C)[C@@H]2c2ccc(O)c(OC)c2)ccc1O |
| 230 µM | 307 µM | 0.071 µM | COc1cc(C[C@@H](C)[C@H](C)Cc2ccc(O)c(OC)c2)ccc1O |
| 11.4 µM | 10.5 µM | 0.085 µM | O=C(Cc1ccc(O)c(Cl)c1)NCc1ccccc1 |
| 9.6 µM | 10.5 µM | 0.07 µM | COc1cc(/C=C2\N=C(N)NC2=O)ccc1O |
